Assays:
[1] = tested on: Mycobacterium tuberculosis; conditions: NAC at 10 millimolar; cited from earlier work
IL-10 = IL-10 secretion by macrophages infected ex vivo with M. Tb H37Rv (FIG. 3; healthy individuals and Type 2 diabetes mellitus); assay type: cell-based, human; conditions: NAC supplied in millimolar amounts
Text: FIG. 3 is two bar graphs using various substances or compositions for raising glutathione in macrophages and how macrophages respond to these various methods. On the left is a control graph for healthy individuals. On the right is a graph for individuals affected with Type 2 diabetes mellitus.
The right graph of FIG. 3 depicts the response of macrophages from individuals with Type 2 diabetes mellitus ex vivo, which have been infected with M. Tb strain H37Rv.
Prior to the current invention, no method of lowering IL-10 in individuals with type 1 or type 2 diabetes mellitus has been proposed. Type 1 diabetes is an immune disorder in which the body's immune cells (white blood cells) attack and destroy insulin-producing beta cells in the pancreas. As a result, the body cannot produce insulin and glucose stays and builds up in the blood, where it damages all the organ systems. […] Similar to type 1 diabetes, type 2 causes a build-up of glucose in the blood which damages the body's organ systems. One of the key complications of Type 2 diabetes is prolonged infection and inhibited response to infection and poor wound healing. This Type 2 form of the disease is commonly referred to as adult-onset diabetes. Cytokine levels, such as for IL-10, in plasma samples can be determined by sandwich enzyme linked immunosorbent assay (ELISA) using assay kits from eBioscience (kit named ELISA Ready-Set-Go). […]

CC(=O)N[C@@H](CS)C(=O)O [NAC, N-acetyl cysteine]
M. tuberculosis CFU/ml in macrophages [1]: 8,000 CFU/ml
IL-10 level from macrophages in cell culture (IL-10): reduce to normal

Source: patent US20170281714A1, “METHOD OF TREATMENT USING L[…] G[…] COOPERATE WITH IL-10 TO MODULATE INFLAMMATORY RESPONSE TRIGGERED IN HIV+ AND TB IMMUNE-C[…] PATIENTS” (Your Energy Systems, LLC, priority 2014, published 2017)
